Test system: men and women with overactive bladder
Assay: Phase 3 study of vibegron 75 mg vs placebo and tolterodine ER 4 mg, 12 weeks, efficacy (voiding and urine volume diary)
Assay type: in vivo, human
Conditions: for Patients with at Least 50% Reduction in Urgency Episodes, Adjusted n / Patients with at Least 50% Reduction in Urgency Episodes, Unadjusted (%) / Patients with at Least 50% Reduction in Urgency Episodes, Unadjusted n / Urgency 50% responders, Active - Placebo CMH Difference / Patients with at Least 50% Reduction in Urgency Episodes, Adjusted (%): Dry population; for Urgency Episodes, Week 12 CFB Mean: descriptive statistics; for Micturitions: LS Mean (95% CI): Table 32, week 12
Method: Enrollment of patients included individuals with OAB Wet (those with UUI, the involuntary loss of urine accompanied by urgency) and OAB Dry (those without UUI). A total of 1,518 patients were randomized across 215 study sites into one of three groups for a 12-week treatment period.
The study consisted of a Screening Period (1 to 5 weeks), a single-blind Run-in Period (2 weeks), a randomized double-blind Treatment Period (12 weeks), and a Follow-up Period (4 weeks).
Tolterodine ER 4 mg was the active control. […] Between the Baseline and Week 12 Visits, patients had study assessments at Week 4 and Week 8.
The Patient Voiding Diary was used by participants (via the eDiary or paper Diary) to record the frequency of daily OAB symptoms including all micturitions, urgency, incontinence, and main reason for incontinence by selecting the respective box for each symptom occurring during the course of a given day and night.
Urine volume data were collected separately by patients using the Urine Volume component of the eDiary, or the paper Urine Volume Chart. The Urine Volume Chart is a tool used in clinical practice and clinical investigation to assess voiding functions over a 24-hour period and is regarded as a useful instrument in the investigation of patients with voiding symptoms. Urine volume may be collected during any one (1) of the 7 Diary Days prior to the visit, and it should be recorded for ˜24 hours starting from the time the patient gets up for the day and continues until the time the patient gets up for the day on the next day.
For the purpose of this study, the number of micturitions was defined as the number of times a patient has voided in the toilet as indicated on the Patient Voiding Diary. Average daily micturitions were calculated using the daily entries in the Patient Voiding Diary, which was completed over the 7 days prior to each study visit. Average daily number of micturitions were calculated as the total number of micturitions that occurred on a Complete Diary Day divided by the number of Complete Diary Days in the Patient Voiding Diary. A complete diary day required confirmation by the patient in the Patient Voiding Diary that all voids and leakages had been recorded for the diary day. Baseline was defined as the average number of micturitions occurring during the last evaluable diary prior to the Baseline Visit.
The number of UUI episodes was defined as the number of times a patient had checked “urge” as the reason for accidental urine leakage. Average daily UUI episodes at each study visit were calculated in the same manner as described above for the micturition endpoint. The UUI endpoint were analyzed using only OAB Wet patients.
For the analysis of the co-primary endpoints (change from baseline in average number of daily micturitions at Week 12 and change from baseline in average number of daily urge urinary incontinence episodes at Week 12, and placebo adjustment of each), a mixed model for repeated measure (MMRM) with restricted maximum likelihood estimation was used. This model corrects for dropout and accounts for the fact that measurements taken on the same patient over time tend to be correlated by using all available information on patients within the same covariate set to derive an estimate of the treatment effect for a dropout-free population. The analysis model for each efficacy endpoint includes terms for treatment, visit, OAB Type (Wet vs Dry), Sex (Female vs Male), Region (US vs Rest of World), baseline score, and interaction of visit by treatment.
Primary inferences were drawn from treatment differences for the changes from baseline derived from the MMRM models at Week 12. As part of secondary objectives, the treatment differences for each post baseline visit were also derived using the same MMRM model. […]

[1] = No prior anticholinergic use during the prior 12 months
[2] = No prior mirabegron use during the prior 12 months
[3] = Overall, events of Events/Censored
[4] = Prior anticholinergic use during the prior 12 months
[5] = Prior mirabegron use during the prior 12 months
[6] = Week 2, events of Events/Censored
[7] = Week 4, events of Events/Censored

## O=C(Nc1ccc(C[C@@H]2CC[C@H]([C@H](O)c3ccccc3)N2)cc1)[C@@H]1CCc2nccc(=O)n21 [Vibegron, (6S)-N-[4-[[(2S,5R)−5-[(R)-hydroxy(phenyl)methyl]pyrrolidin−2-yl]methyl]phenyl]−4-oxo−7,8-dihydro−6H-pyrrolo[1,2-a]pyrimidine−6-carboxamide]
Baseline to Week 4
  Patients with at Least 50% Reduction in Urgency Episodes, Adjusted n: 28
  Patients with at Least 50% Reduction in Urgency Episodes, Unadjusted (%): 25.2%
  Patients with at Least 50% Reduction in Urgency Episodes, Unadjusted n: 31
  Urgency 50% responders, Active - Placebo CMH Difference: 5.4
Baseline to Week 8
  Patients with at Least 50% Reduction in Urgency Episodes, Adjusted (%): 31.9%
  Patients with at Least 50% Reduction in Urgency Episodes, Adjusted n: 39
  Patients with at Least 50% Reduction in Urgency Episodes, Unadjusted (%): 35.0%
  Patients with at Least 50% Reduction in Urgency Episodes, Unadjusted n: 43
  Urgency 50% responders, Active - Placebo CMH Difference: 12.4
Baseline to Week 12
  Patients with at Least 50% Reduction in Urgency Episodes, Adjusted (%): 36.9%
  Patients with at Least 50% Reduction in Urgency Episodes, Adjusted n: 45
  Patients with at Least 50% Reduction in Urgency Episodes, Unadjusted (%): 43.1%
  Patients with at Least 50% Reduction in Urgency Episodes, Unadjusted n: 53
  Urgency 50% responders, Active - Placebo CMH Difference: 13.9
Males with BPH
  Urgency Episodes, Week 12 CFB Mean: −1.90
Males without BPH
  Urgency Episodes, Week 12 CFB Mean: −2.56
No Prior ACH Use in last 12 Mo.
  Urgency Episodes, Week 12 CFB Mean: −3.00
No Prior B3 Agonist Use in last 12 Mo.
  Urgency Episodes, Week 12 CFB Mean: −2.94
[1]
  Micturitions, 12-week change: −2.1
  UUI Episodes, 12-week change: −2.1
[2]
  Micturitions, 12-week change: −2.0
  UUI Episodes, 12-week change: −2.0
Overall
  Overall Time to First 50% Decrease in Urgency Episodes, 25th Percentile: 4.1 weeks
  Overall Time to First 50% Decrease in Urgency Episodes, 50th Percentile: 12.3 weeks
  Overall Time to First 50% Decrease in Urgency Episodes, Median (95% CI): 12.3 (12.1 to 12.6) weeks
  Overall Time to First 100% Decrease in UUI Episodes, 25th Percentile: 8.1, NE weeks
  Overall Time to First 100% Decrease in UUI Episodes, Median (95% CI): 13.3 (12.9 to NE) weeks
  Urgency Episodes, Week 12 CFB Mean: −2.93
  Micturitions: LS Mean (95% CI): −0.5 (−0.8 to −0.2)
[3]
  First 50% Decrease in Urgency Episodes, Events: 256/270
  First 100% Decrease in UUI Episodes, Events: 146/257
Prior ACH Use in last 12 Mo.
  Urgency Episodes, Week 12 CFB Mean: −2.50
Prior B3 Agonist Use in last 12 Mo.
  Urgency Episodes, Week 12 CFB Mean: −2.56
[4]
  Micturitions, 12-week change: −1.97
  UUI Episodes, 12-week change: −1.46
[5]
  Micturitions, 12-week change: −2.83
  UUI Episodes, 12-week change: −1.64
Age <65 years
  Micturitions: LS Mean (95% CI): −0.2 (−0.6 to 0.2)
Age ≥65 years
  Micturitions: LS Mean (95% CI): −0.9 (−1.3 to −0.4)
Age ≥75 years (posthoc analysis)
  Micturitions: LS Mean (95% CI): −1.0 (−1.8 to −0.1)
Females
  Micturitions: LS Mean (95% CI): −0.5 (−0.8 to −0.2)
Males
  Micturitions: LS Mean (95% CI): −0.6 (−1.4 to 0.1)
Non-White
  Micturitions: LS Mean (95% CI): −0.5 (−1.2 to 0.1)
OAB Type: Dry
  Micturitions: LS Mean (95% CI): −0.7 (−1.4 to −0.1)
OAB Type: Wet
  Micturitions: LS Mean (95% CI): −0.5 (−0.8 to −0.1)
Region: Non-US
  Micturitions: LS Mean (95% CI): −0.4 (−1.4 to 0.5)
Region: US
  Micturitions: LS Mean (95% CI): −0.5 (−0.8 to −0.2)
White
  Micturitions: LS Mean (95% CI): −0.5 (−0.8 to −0.2)
Week 2
  Average Daily Number of Total Incontinence, Mean (SD): 2.53 (3.118)
  Average daily number of urgency episodes, Mean (SD): 6.47 (4.458)
  Average volume voided per micturition, Active - Placebo LS Mean Difference: 11.9 mL
  Change from Baseline in Average Daily Number of Total Incontinence, LS Mean (SE): −1.6 (0.14)
  Change from baseline in average daily number of urgency episodes, LS Mean: −1.5
  Change from baseline in average volume voided per micturition, LS Mean (SE): 14.2 (3.02) mL
  Estimated Incidence of Subjects with 50% Decrease from Baseline (urgency episodes): 19.6
  Estimated Incidence of Subjects with 100% Decrease from Baseline (UUI episodes): 7.4
  Total Incontinence, Active - Placebo LS Mean Difference (SE): −0.7 (0.14)
  Urgency episodes, Active - Placebo LS Mean Difference: −0.6
[6]
  First 50% Reduction in Urgency Episodes, Events: 103/423
  First 100% Reduction in UUI Episodes, Events: 30/373
Week 2, vibegron 75 mg, tolterodine ER 4 mg
  Average volume voided per micturition, Week 2 Mean (SD): 165.6 (74.26) mL
Week 4
  Average Daily Number of Total Incontinence, Mean (SD): 2.28 (3.239)
  Average daily number of urgency episodes, Mean (SD): 6.02 (4.458)
  Average volume voided per micturition, Active - Placebo LS Mean Difference: 14.5 mL
  Average volume voided per micturition, Week 4 Mean (SD): 172.6 (76.57) mL
  Change from Baseline in Average Daily Number of Total Incontinence, LS Mean (SE): −1.9 (0.14)
  Change from baseline in average daily number of urgency episodes, LS Mean: −1.9
  Change from baseline in average volume voided per micturition, LS Mean (SE): 18.9 (3.15) mL
  Estimated Incidence of Subjects with 50% Decrease from Baseline (urgency episodes): 21.1
  Estimated Incidence of Subjects with 100% Decrease from Baseline (UUI episodes): 9.2
  Total Incontinence, Active - Placebo LS Mean Difference (SE): −0.8 (0.14)
  Urgency episodes, Active - Placebo LS Mean Difference: −0.8
[7]
  First 50% Reduction in Urgency Episodes, Events: 111/415
  First 100% Reduction in UUI Episodes, Events: 37/366
Week 8
  Average Daily Number of Total Incontinence, Mean (SD): 2.05 (3.245)
  Average daily number of urgency episodes, Mean (SD): 5.58 (4.399)
  Average volume voided per micturition, Active - Placebo LS Mean Difference: 18.3 mL
  Average volume voided per micturition, Week 8 Mean (SD): 173.4 (81.95) mL
  Change from Baseline in Average Daily Number of Total Incontinence, LS Mean (SE): −2.1 (0.15)
  Change from baseline in average daily number of urgency episodes, LS Mean: −2.4

Reference: patent publication US20230027066A1 (Urovant Sciences GmbH, priority 2019, published 2023)
